Results reported in article PMC11680018, “Study of Cytotoxicity of Spiro-Fused [3-Azabicyclo[3.1.0]hexane]oxindoles and Cyclopropa[a]pyrrolizidine-oxindoles Against Tumor Cell Lines” (Pharmaceuticals, 2024).
Read-outs that look alike come from different tables or passages of the source.

What was measured:
[1] = system: HeLa cells actin cytoskeleton; assay: Actin cytoskeleton staining, confocal microscopy, HeLa; assay type: cell-based, human; conditions: 10 μg/mL, 24 h; for HeLa cells with filopodia-like deformations: control cells 93%, lowest value over the compounds; for HeLa cells with granular actin distributed diffusely in the cytoplasm (stress fibers disappeared): maximum over the compounds
Experimental: It was found using confocal microscopy that incubation with spiro-fused [3-azabicyclo[3.1.0]hexane]oxindoles 4, 8, 17, 18, 22, 24 and cyclopropa[a]pyrrolizidine-2,3′-oxindole 2 led to significant changes in the HeLa cells’ actin cytoskeleton structure leading to the disappearance of stress fibers (granular actin was distributed diffusely in the cytoplasm in up to 38% of treated cells) and changes in the number of filopodia-like deformations (reduced from 93% in control cells to 64% after treatment). The impact on the Sk-mel-2 cells’ actin cytoskeleton structure was even greater: granular actin was distributed diffusely in the cytoplasm in up to 90% of treated cells while the number of filopodia-like deformations was reduced by up to 23%. Such changes in the cytoskeleton may indicate a change in the motor activity of cells, which may indicate a decrease in the ability of tumor cells to metastasize.
HeLa cells were seeded at a density of 2 × 10^5 cells per dish onto a petri dish with cover slips and incubated for 24 h. After that, cells were treated with chosen compounds (10 μg/mL) for 24 h. The medium was removed and cells were fixed with 4% paraformaldehyde (Sigma-Aldrich, St. Louis, MO, USA), washed three times with PBS, and permeabilized with 0.3% Triton-X100 (Sigma-Aldrich, St. Louis, MO, USA). The cells were rinsed three times with PBS. Actin filaments (microfilaments) were stained with rhodamine–phalloidin (Invitrogen, Carlsbad, CA, USA) at 37 °C for 15 min. The samples were rinsed three times with PBS, followed by embedding in Fluoroshield medium (Sigma-Aldrich, St. Louis, MO, USA). Cells were imaged using an Axio Observer Z1 confocal microscope (Carl Zeiss MicroImaging GmbH, Jena, Germany). In each experiment, at least 30 cells were imaged. Images were analyzed by a pathologist blinded to the treatment mode used for each group using ImageJ software, 1.52v.

[2] = system: acute T cell leukemia (Jurkat) cell line; assay: MTS cell proliferation assay, Jurkat; assay type: cell-based, human; conditions: for IC50: Homo sapiens, Jurkat, MTS; for SI (selectivity index) Jurkat: ratio of cytotoxicity PBMC / Jurkat, calculated at 72 h
Experimental: (§1) Cancer cell lines are valuable in vitro model systems that are widely used in cancer research and drug discovery. Their use is mainly linked to their possibility to provide for experimental purposes an unlimited source of biological material. Here, the 24 and 72 h in vitro MTS assay was used to determine the antiproliferative activity of synthesized spiro-fused cyclopropa[a]pyrrolizidine-2,3′-oxindoles and [3-azabicyclo[3.1.0]hexane]-oxindoles against human erythroleukemia (K562), acute T cell leukemia (Jurkat), cervical carcinoma (HeLa), melanoma (Sk-mel-2), breast cancer adenocarcinoma (MCF-7) as well as mouse colon carcinoma (CT26) cell lines. […] The full results of these investigations are presented in the Supporting Information Figures S1–S6. […] An evaluation of the cytotoxicity of the selected compounds towards normal cells (peripheral blood mononuclear cells) was performed additionally to understand their respective relative selectivities. The selectivity index was obtained using the ratio of measured cytotoxicity between the PBMC cells and each of the cancer cell lines, and the results are presented in Table 3.
(§2) The human erythroleukemia (K-562), cervical carcinoma (HeLa) as well as mouse colon carcinoma (CT26) cell lines were obtained from the Bank of Cell Cultures of the Institute of Cytology of the Russian Academy of Sciences; the human melanoma (Sk-mel-2) cell line was obtained from the Bank of Cell Cultures of the Institute of Cytology and Genetics, Siberian Branch of the Russian Academy of Sciences. The acute T cell leukemia (Jurkat) cell line was obtained from the Bank of Cell Cultures of the Institute of Immunology of the Russian Academy of Medical Sciences. The peripheral blood mononuclear cells (PBMC) were isolated from the blood of healthy donors. K-562, Jurkat, MCF-7, PBMC and CT26 cells were grown on RPMI medium (Hyclone, GE Healthcare Life Sciences, Logan, UT, USA) supplemented with 10% (v/v) fetal bovine serum (Hyclone, GE Healthcare Life Sciences, Logan, UT, USA) and gentamicin (Sigma-Aldrich, St. Louis, MO, USA) at 37 °C in a humidified atmosphere with 5% CO2. HeLa and Sk-mel-2 cells were cultured with the same supplements and conditions in DMEM medium (Hyclone, GE Healthcare Life Sciences, Logan, UT, USA).
(§3) To evaluate the in vitro toxicity of the compounds synthesized, cells were seeded into 96-well plates at a density of 5 × 10^3 cells per well. On the next day, the tested compounds were added to the wells at concentrations ranging from 1 to 30 μg/mL, followed by incubation for 1 and 3 days. Cell proliferation was determined by adding 20 μL of MTS reagent (BioVision, Milpitas, CA, USA) stock solution per well. The plates were incubated for 2 h at 37 °C in a humidified, 5% CO2 atmosphere. The plates were then read at 495 nm using a plate spectrophotometer (Multiskan GO, Thermo Fisher Scientific, Waltham, MA, USA). All samples were measured in triplicate.

[3] = system: peripheral blood mononuclear cells (PBMC); assay: MTS cytotoxicity towards normal cells, PBMC; assay type: cell-based; conditions: Homo sapiens
Experimental: as §1, §2, §3

[4] = system: cervical carcinoma (HeLa) cell line; assay: MTS cell proliferation assay, HeLa; assay type: cell-based, human; conditions: for IC50: Homo sapiens, HeLa, MTS; for SI (selectivity index) HeLa: ratio of cytotoxicity PBMC / HeLa, calculated at 72 h
Experimental: as §1, §2, §3

[5] = system: mouse colon carcinoma (CT26) cell line; assay: MTS cell proliferation assay, CT26; assay type: cell-based; conditions: for IC50: Mus musculus, MTS; for SI (selectivity index) CT26: ratio of cytotoxicity PBMC / CT26, calculated at 72 h
Experimental: as §1, §2, §3

[6] = system: melanoma (Sk-mel-2) cell line; assay: MTS cell proliferation assay, Sk-mel-2; assay type: cell-based, human; conditions: for IC50: Homo sapiens, MTS; for SI (selectivity index) Sk-mel-2: ratio of cytotoxicity PBMC / Sk-mel-2, calculated at 72 h
Experimental: as §1, §2, §3

[7] = system: breast cancer adenocarcinoma (MCF-7) cell line; assay: MTS cell proliferation assay, MCF-7; assay type: cell-based, human; conditions: for IC50: Homo sapiens, MTS; for SI (selectivity index) MCF-7: ratio of cytotoxicity PBMC / MCF-7, calculated at 72 h
Experimental: as §1, §2, §3

[8] = system: human erythroleukemia (K562) cell line; assay: MTS cell proliferation assay, K562; assay type: cell-based; conditions: for IC50: Homo sapiens, MTS; for SI (selectivity index) K562: ratio of cytotoxicity PBMC / K562, calculated at 72 h
Experimental: as §1, §2, §3

[9] = read-out: IC50 Jurkat 24 h, 24 h
[10] = 72 h, read-out: IC50 Jurkat 72 h
[11] = read-out: IC50 CT26 24 h, CT26, 24 h
[12] = CT26, 72 h, read-out: IC50 CT26 72 h
[13] = read-out: IC50 Sk-mel-2 24 h, Sk-mel-2, 24 h
[14] = Sk-mel-2, 72 h, read-out: IC50 Sk-mel-2 72 h
[15] = MCF7, read-out: IC50 MCF-7 24 h, MCF-7, 24 h
[16] = MCF7, MCF-7, 72 h, read-out: IC50 MCF-7 72 h
[17] = read-out: IC50 K562 24 h, K562, 24 h
[18] = K562, 72 h, read-out: IC50 K562 72 h

Structure (SMILES)	HeLa cells with filopodia-like deformations [1]	HeLa cells with granular actin distributed diffusely in the cytoplasm (stress fibers disappeared) [1]	IC50 [2, 9]	IC50 [2, 10]	SI (selectivity index) Jurkat [2]	IC50 ([3]; 72 h, read-out: IC50 PBMC 72 h)	IC50 ([3]; read-out: IC50 PBMC 24 h, 24 h)	IC50 ([4]; read-out: IC50 HeLa 24 h, 24 h)	IC50 ([4]; 72 h, read-out: IC50 HeLa 72 h)	SI (selectivity index) HeLa [4]	IC50 [5, 11]	IC50 [5, 12]	SI (selectivity index) CT26 [5]	IC50 [6, 13]	IC50 [6, 14]	SI (selectivity index) Sk-mel-2 [6]	IC50 [7, 15]	IC50 [7, 16]	SI (selectivity index) MCF-7 [7]	IC50 [8, 17]	other results
NC(=O)CC1NC2(C(=O)Nc3ccccc32)C2(c3ccccc3)C(c3ccccc3)C12c1ccccc1 (stereo not drawn) [Compound 18]	≥ 64%	up to 38%	6 ± 1 µM	2 ± 1 µM	6	12 ± 1 µM	29 ± 3 µM	23 ± 2 µM	10 ± 2 µM	1	27 ± 2 µM	10 ± 1 µM	1	29 ± 2 µM	10 ± 1 µM	1	> 40 µM	14 ± 1 µM	1	14 ± 2 µM	IC50 [8, 18]: 6 ± 1 µM; SI (selectivity index) K562 [8]: 2
CSCCC1NC2(C(=O)Nc3ccccc32)C2(c3ccccc3)C(c3ccccc3)C12c1ccccc1 (stereo not drawn) [Compound 24]	≥ 64%	up to 38%	22 ± 2 µM	4 ± 1 µM	23	92 ± 11 µM	113 ± 14 µM	20 ± 2 µM	8 ± 1 µM	12	> 40 µM	> 40 µM	1	> 40 µM	8 ± 1 µM	12	> 40 µM	> 40 µM	1	> 40 µM	IC50 [8, 18]: 10 ± 1 µM; SI (selectivity index) K562 [8]: 9
CC[C@H](C)C1NC2(C(=O)Nc3ccccc32)C2(c3ccccc3)C(C(=O)OC)C12c1ccccc1 (stereo partly drawn) [Compound 4]	≥ 64%	up to 38%	11 ± 1 µM	4 ± 1 µM	22	92 ± 9 µM	174 ± 17 µM	> 40 µM	9 ± 1 µM	11	> 40 µM	21 ± 2 µM	4	> 40 µM	9 ± 1 µM	11	> 40 µM	> 40 µM	2	32 ± 2 µM	IC50 [8, 18]: 6 ± 1 µM; SI (selectivity index) K562 [8]: 14
